From PubChem BioAssay AID434974 (The Scripps Research Institute Molecular Screening Center, 2010)
Activity calls are given as the source filed them. The rule behind the calls is not given here.

Key:
Test in all cases: off-target binding across PDSP receptor panel, profiling panel, selectivity assay for NOX1 inhibitor project, biochemical, radioligand binding (AID 434974)
[1] = tested on: Nicotinic receptor A2B4; details: receptor displacement, at 10 µM, stronger effect = higher value
[2] = biological target: Delta-type opioid receptor (Homo sapiens) (UniProt P41143); details: receptor displacement, Opioid receptor DOR, at 10 µM, stronger effect = higher value
[3] = tested on: Histamine receptor H2; details: receptor displacement, at 10 µM, stronger effect = higher value
[4] = tested on: Histamine receptor H3; details: receptor displacement, at 10 µM, stronger effect = higher value
[5] = tested on: Nicotinic receptor A4B4; details: receptor displacement, at 10 µM, stronger effect = higher value
[6] = tested on: Serotonin receptor 5ht3; details: receptor displacement, at 10 µM, stronger effect = higher value
[7] = tested on: Serotonin receptor 5ht7; details: receptor displacement, at 10 µM, stronger effect = higher value
[8] = biological target: Alpha-2C adrenergic receptor (Homo sapiens) (UniProt P18825); details: receptor displacement, Adrenergic receptor Alpha2C, at 10 µM, stronger effect = higher value
[9] = biological target: 5-hydroxytryptamine receptor 2B (Homo sapiens) (UniProt P41595); details: receptor displacement, Serotonin receptor 5ht2b, at 10 µM, stronger effect = higher value
[10] = tested on: Serotonin receptor 5ht1b; details: receptor displacement, at 10 µM, stronger effect = higher value
[11] = tested on: Vasopressin receptor V2; details: receptor displacement, at 10 µM, stronger effect = higher value
[12] = tested on: Serotonin receptor 5ht2c; details: receptor displacement, at 10 µM, stronger effect = higher value
[13] = biological target: Cannabinoid receptor 2 (Homo sapiens) (UniProt P34972); details: receptor displacement, Cannabinoid receptor CB2, at 10 µM, stronger effect = higher value
[14] = biological target: Muscarinic acetylcholine receptor M1 (Homo sapiens) (UniProt P11229); details: receptor displacement, at 10 µM, stronger effect = higher value
[15] = tested on: Dopamine receptor D4; details: receptor displacement, at 10 µM, stronger effect = higher value
[16] = tested on: Serotonin receptor 5ht1d; details: receptor displacement, at 10 µM, stronger effect = higher value
[17] = biological target: D(1A) dopamine receptor (Homo sapiens) (UniProt P21728); details: receptor displacement, Dopamine receptor D1, at 10 µM, stronger effect = higher value
[18] = tested on: Adrenergic receptor Beta1; details: receptor displacement, at 10 µM, stronger effect = higher value
[19] = tested on: Prostaglandin receptor EP4; details: receptor displacement, at 10 µM, stronger effect = higher value
[20] = tested on: Adrenergic receptor Alpha1B; details: receptor displacement, at 10 µM, stronger effect = higher value
[21] = tested on: BZP Rat Brain Site; details: receptor displacement, at 10 µM, stronger effect = higher value
[22] = tested on: Vasopressin receptor V1B; details: receptor displacement, at 10 µM, stronger effect = higher value
[23] = tested on: Dopamine receptor D2; details: receptor displacement, at 10 µM, stronger effect = higher value
[24] = tested on: GABA receptor PBR; details: receptor displacement, at 10 µM, stronger effect = higher value
[25] = tested on: Cannabinoid receptor CB1; details: receptor displacement, at 10 µM, stronger effect = higher value
[26] = tested on: Histamine receptor H1; details: receptor displacement, at 10 µM, stronger effect = higher value
[27] = tested on: Glutamate receptor NMDA PCP site; details: receptor displacement, at 10 µM, stronger effect = higher value
[28] = tested on: GABA receptor GABAa a1; details: receptor displacement, at 10 µM, stronger effect = higher value
[29] = tested on: Serotonin receptor 5ht5a; details: receptor displacement, at 10 µM, stronger effect = higher value
[30] = biological target: D(3) dopamine receptor (Homo sapiens) (UniProt P35462); details: receptor displacement, Dopamine receptor D3, at 10 µM, stronger effect = higher value
[31] = biological target: Kappa-type opioid receptor (Homo sapiens) (UniProt P41145); details: receptor displacement, Opioid receptor KOR, at 10 µM, stronger effect = higher value
Kappa-type opioid receptor (Homo sapiens), sequence (P41145 whole entry, looked up): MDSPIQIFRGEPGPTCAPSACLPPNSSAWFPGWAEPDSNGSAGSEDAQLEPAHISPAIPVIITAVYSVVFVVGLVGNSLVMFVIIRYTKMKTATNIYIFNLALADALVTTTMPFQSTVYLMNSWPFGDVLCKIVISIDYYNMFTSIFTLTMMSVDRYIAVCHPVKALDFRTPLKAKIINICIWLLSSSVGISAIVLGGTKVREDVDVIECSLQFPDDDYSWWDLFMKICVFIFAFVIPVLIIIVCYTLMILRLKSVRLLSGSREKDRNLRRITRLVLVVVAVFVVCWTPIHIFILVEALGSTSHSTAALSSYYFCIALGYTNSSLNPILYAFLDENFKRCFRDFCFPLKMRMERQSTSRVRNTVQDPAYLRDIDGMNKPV

Cannabinoid receptor 2 (Homo sapiens), sequence (P34972 whole entry, looked up): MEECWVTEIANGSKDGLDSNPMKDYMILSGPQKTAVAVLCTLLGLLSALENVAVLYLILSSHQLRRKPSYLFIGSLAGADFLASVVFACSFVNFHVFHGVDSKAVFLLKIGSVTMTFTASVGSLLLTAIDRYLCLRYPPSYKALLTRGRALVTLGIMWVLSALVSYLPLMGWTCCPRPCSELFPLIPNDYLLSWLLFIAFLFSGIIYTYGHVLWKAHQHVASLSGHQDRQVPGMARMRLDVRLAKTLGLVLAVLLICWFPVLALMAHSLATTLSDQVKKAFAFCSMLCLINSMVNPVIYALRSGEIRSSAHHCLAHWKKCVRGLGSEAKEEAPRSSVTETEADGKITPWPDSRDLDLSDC
D(3) dopamine receptor (Homo sapiens), sequence (P35462 whole entry, looked up): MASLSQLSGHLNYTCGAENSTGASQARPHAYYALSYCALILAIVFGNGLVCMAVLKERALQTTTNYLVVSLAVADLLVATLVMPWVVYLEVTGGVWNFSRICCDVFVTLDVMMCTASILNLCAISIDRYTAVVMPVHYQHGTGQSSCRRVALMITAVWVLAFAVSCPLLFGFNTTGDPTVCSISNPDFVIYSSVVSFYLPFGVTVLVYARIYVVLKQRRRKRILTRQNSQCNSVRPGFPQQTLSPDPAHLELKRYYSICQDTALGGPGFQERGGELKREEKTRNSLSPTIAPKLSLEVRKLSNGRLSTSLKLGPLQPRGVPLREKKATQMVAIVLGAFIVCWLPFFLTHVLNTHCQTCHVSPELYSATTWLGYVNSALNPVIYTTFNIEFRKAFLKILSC
D(1A) dopamine receptor (Homo sapiens), sequence (P21728 whole entry, looked up): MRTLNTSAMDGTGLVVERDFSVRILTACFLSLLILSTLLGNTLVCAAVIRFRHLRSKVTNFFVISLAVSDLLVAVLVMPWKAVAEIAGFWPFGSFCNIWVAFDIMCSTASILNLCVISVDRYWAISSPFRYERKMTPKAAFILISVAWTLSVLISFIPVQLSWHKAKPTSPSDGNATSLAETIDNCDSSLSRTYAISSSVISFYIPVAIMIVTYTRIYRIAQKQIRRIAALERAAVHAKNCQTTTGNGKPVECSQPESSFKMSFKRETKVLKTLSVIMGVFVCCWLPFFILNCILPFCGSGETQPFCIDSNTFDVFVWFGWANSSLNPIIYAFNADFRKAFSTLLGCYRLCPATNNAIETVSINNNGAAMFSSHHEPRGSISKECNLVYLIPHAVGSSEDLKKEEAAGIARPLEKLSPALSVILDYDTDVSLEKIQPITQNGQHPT
Delta-type opioid receptor (Homo sapiens), sequence (P41143 whole entry, looked up): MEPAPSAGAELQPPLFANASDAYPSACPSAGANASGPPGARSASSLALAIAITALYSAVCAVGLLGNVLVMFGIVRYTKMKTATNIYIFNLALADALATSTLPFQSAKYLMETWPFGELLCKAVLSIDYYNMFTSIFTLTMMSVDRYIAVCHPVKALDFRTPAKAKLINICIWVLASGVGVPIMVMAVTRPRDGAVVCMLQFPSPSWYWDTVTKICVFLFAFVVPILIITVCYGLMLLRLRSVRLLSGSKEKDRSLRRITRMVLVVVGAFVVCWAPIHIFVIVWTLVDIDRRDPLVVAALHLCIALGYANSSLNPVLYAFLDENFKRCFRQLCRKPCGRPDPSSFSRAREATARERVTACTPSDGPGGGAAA
5-hydroxytryptamine receptor 2B (Homo sapiens), sequence (P41595 whole entry, looked up): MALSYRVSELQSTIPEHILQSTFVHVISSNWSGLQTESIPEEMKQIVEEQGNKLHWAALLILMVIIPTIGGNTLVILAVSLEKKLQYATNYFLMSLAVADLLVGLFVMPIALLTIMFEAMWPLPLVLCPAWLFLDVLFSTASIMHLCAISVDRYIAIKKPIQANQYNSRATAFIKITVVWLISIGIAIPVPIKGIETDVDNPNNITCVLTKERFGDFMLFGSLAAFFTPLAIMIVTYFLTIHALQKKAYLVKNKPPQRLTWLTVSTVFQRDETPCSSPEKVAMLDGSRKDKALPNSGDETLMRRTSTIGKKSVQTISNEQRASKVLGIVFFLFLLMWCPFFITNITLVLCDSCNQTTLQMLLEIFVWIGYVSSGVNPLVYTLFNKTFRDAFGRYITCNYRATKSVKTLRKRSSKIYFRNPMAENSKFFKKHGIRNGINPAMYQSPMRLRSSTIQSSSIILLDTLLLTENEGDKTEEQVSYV
Muscarinic acetylcholine receptor M1 (Homo sapiens), sequence (P11229 whole entry, looked up): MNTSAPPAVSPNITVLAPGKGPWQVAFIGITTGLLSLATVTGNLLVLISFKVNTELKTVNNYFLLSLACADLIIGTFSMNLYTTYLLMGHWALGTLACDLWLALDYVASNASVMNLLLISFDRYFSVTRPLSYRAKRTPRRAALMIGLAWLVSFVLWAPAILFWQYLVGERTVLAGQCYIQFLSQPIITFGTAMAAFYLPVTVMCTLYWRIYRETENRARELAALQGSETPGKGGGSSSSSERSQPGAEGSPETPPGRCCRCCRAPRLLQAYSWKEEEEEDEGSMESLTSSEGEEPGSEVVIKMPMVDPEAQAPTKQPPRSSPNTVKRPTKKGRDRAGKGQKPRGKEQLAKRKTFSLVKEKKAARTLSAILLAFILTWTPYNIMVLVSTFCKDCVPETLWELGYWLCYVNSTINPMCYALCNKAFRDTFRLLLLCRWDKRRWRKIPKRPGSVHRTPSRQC
Alpha-2C adrenergic receptor (Homo sapiens), sequence (P18825 whole entry, looked up): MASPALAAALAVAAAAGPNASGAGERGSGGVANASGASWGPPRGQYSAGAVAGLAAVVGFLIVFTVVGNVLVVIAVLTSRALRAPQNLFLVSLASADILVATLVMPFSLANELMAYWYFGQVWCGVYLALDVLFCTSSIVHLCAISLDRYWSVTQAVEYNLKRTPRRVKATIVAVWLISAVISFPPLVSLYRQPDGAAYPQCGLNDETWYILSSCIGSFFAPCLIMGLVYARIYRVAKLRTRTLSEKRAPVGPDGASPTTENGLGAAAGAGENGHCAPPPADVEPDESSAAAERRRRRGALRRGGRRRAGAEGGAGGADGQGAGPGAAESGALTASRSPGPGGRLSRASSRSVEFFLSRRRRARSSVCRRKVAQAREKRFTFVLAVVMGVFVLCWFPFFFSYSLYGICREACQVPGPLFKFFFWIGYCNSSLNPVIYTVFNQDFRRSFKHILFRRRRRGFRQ

With `CN1c2ccccc2Sc2cc(N)ccc21` the inhibition [1] was 4% (inactive), the inhibition [2] was -0.5% (inactive) and the inhibition [3] was 43% (inactive). The inhibition [4] was -2.4% (inactive), the inhibition [5] was 7% (inactive) and the inhibition [6] was 1.4% (inactive). For the same molecule, the inhibition [7] was -5.7% (inactive), the inhibition [8] was 98.2% and the inhibition [9] was 84.3%. For the same molecule, the inhibition [10] was 11.3% (inactive), the inhibition [11] was -5.5% (inactive) and the inhibition [12] was 62.4%. The inhibition [13] was 3.8% (inactive), the inhibition [14] was 1.1% (inactive) and the inhibition [15] was 34.7% (inactive). For the same molecule, the inhibition [16] was 16.1% (inactive), the inhibition [17] was 23.6% (inactive) and the inhibition [18] was 23.5% (inactive). The inhibition [19] was 45.5% (inactive), the inhibition [20] was 38.4% (inactive) and the inhibition [21] was 44.8% (inactive). The inhibition [22] was 8.9% (inactive), the inhibition [23] was 22.6% (inactive) and the inhibition [24] was 32.1% (inactive). The inhibition [25] was 5% (inactive), the inhibition [26] was 46.4% (inactive) and the inhibition [27] was 25% (inactive). For the same molecule, the inhibition [28] was 16.2% (inactive), the inhibition [29] was 45.6% (inactive) and the inhibition [30] was 59.2%. The inhibition [31] was 16.3% (inactive).
